Experimental data: US20240352022A1, “GROUP OF IMB-C5 SERIES COMPOUNDS HAVING ANTI-CORONAVIRUS ACTIVITY AND APPLICATION THEREOF” (priority 2021, published 2024)

Key:
HCoV-OC43 [1] = experiment: N protein level of HCoV-OC43 in C3A cells (Western Blotting); type: cell-based, Human coronavirus HCoV-OC43; details: 24 h
Description: The viral N protein level was determined after 24 h.
The effect of IMB-C5 and IMB-85 on N protein level of coronavirus HCoV-OC43 was determined. C3A cells were infected at a viral load of MOI=0.037, and simultaneously administered with IMB-C5 (10 μM), IMB-85 (10 μM, 2 μ, 0.4 μM and 0.08 μM) and MNP (the positive control, 15 μM). After 24 h, the protein was extracted for Western blotting.

HCoV-229E [2] = experiment: dsRNA production during replication of HCoV-229E in Huh7 cells (immunofluorescence assay); type: cell-based, Human coronavirus HCoV-229E
HCoV-229E [3] = experiment: anti-HCoV-229E activity in Huh7 cells by cytopathic effect (CPE) assay; type: cell-based, Human coronavirus HCoV-229E; details: Human coronavirus 229E, Huh-7, HCoV-229E 100 TCID50 in Huh7 cells, about 48 h
HCoV-229E [4] = experiment: time-of-addition experiment, HCoV-229E in Huh7 cells (Western blotting and immunofluorescence); type: cell-based, Human coronavirus HCoV-229E; set-up: dose or concentration left out as unconfirmed
[5] = CCK-8 cytotoxicity assay in Huh7 cells; type: cell-based; details: human, Huh7 hepatocellular carcinoma cells, CCK-8, 48 hours, read-out: TC50
Description: (§1) In order to determine the possible cytotoxicity of IMB-C5 and IMB-85, the CCK-8 assay was first used to detect the effect of the two compounds at different concentrations on viability of different cells 48 hours after administration.

HCoV-229E [6] = experiment: N protein level of HCoV-229E in Huh7.5 cells (Western Blotting); type: cell-based, Human coronavirus HCoV-229E; details: MOI=1, different concentrations, 24 h
HCoV-229E [7] = experiment: anti-HCoV-229E activity in Huh7.5 cells by cytopathic effect (CPE) assay; type: cell-based, Human coronavirus HCoV-229E; details: Human coronavirus 229E, HCoV-229E 100 TCID50 in Huh7.5 cells, about 48 h
HCoV-229E [8] = experiment: mRNA level of HCoV-229E N protein in Huh7 cells (RT-qPCR); type: cell-based, Human coronavirus HCoV-229E; details: 24 h
[9] = CCK-8 cytotoxicity assay in Huh7.5 cells; type: cell-based; details: human, Huh7.5 hepatocellular carcinoma cells, CCK-8, 48 hours, read-out: TC50
Description: as §1

HCoV-229E [10] = experiment: N protein level of HCoV-229E in Huh7 cells (Western Blotting); type: cell-based, Human coronavirus HCoV-229E; details: 24 h
in vitro [11] = details: human
HCoV-OC43 [12] = experiment: mRNA level of HCoV-OC43 N protein in C3A cells (RT-qPCR); type: cell-based, Human coronavirus HCoV-OC43; details: MOI=0.023, three concentrations, 24 h
HCoV-229E [13] = experiment: mRNA level of HCoV-229E N protein in Huh7.5 cells (RT-qPCR); type: cell-based, Human coronavirus HCoV-229E; details: MOI=0.035, three concentrations, 24 h
in vitro [14] = details: human; remark: listed apart in the source
HCoV-OC43 [15] = experiment: time-of-addition experiment, HCoV-OC43 in C3A cells (immunofluorescence assay); type: cell-based, Human coronavirus HCoV-OC43; details: 50 μM
[16] = from reference [5]; cited from earlier work
in vitro [17] = details: African green monkey
[18] = MOI=17, IMB-85 3, 0.6 and 0.12 μM

SMILES | dsRNA production during replication of HCoV-229E (HCoV-229E [2]; MOI=17, 24 h) | EC50 (HCoV-229E [3]) [µM] | CC50 at 48 h [5] [µM] | EC50 (HCoV-229E [7]) [µM] | CC50 at 48 h [9] [µM] | N protein level of HCoV-229E (HCoV-229E [10]; MOI=1, 5 μM compound) | CC50 (in vitro [11]) [µM] | further results
CCCCc1ccc(Cn2c(NCCO)nc3c2c(=O)n(C)c(=O)n3C)cc1 [IMB-85, 7-(4-butylbenzyl)-8-((2-hydroxyethyl)amino)-1,3-dimethyl-3,7-dihydro-1H-purine-2,6-dione] | inhibited dsRNA production | 0.09 | > 200 | 4.05 | > 200 | best activity in decreasing HCoV-229E N protein level | – | N protein level of HCoV-OC43 (HCoV-OC43 [1]; MOI=0.037, IMB-85 10, 2, 0.4 and 0.08 μM): decreased the HCoV-OC43 N protein level in C3A cells in a dose-dependent manner; antiviral effect (N protein and dsRNA level), time of addition (HCoV-229E [4]; IMB-85, HCoV-229E MOI=10, administered 6 h or more after infection): diminished antiviral effect; antiviral effect (N protein and dsRNA level), time of addition (HCoV-229E [4]; IMB-85, HCoV-229E MOI=10, at the time of infection or within 1-5 h after infection): significant inhibitory effect on virus; N protein level of HCoV-229E (HCoV-229E [6]): decreased the HCoV-229E N protein level in Huh7.5 cells in a dose-dependent manner; mRNA level of HCoV-229E N protein (HCoV-229E [8]; [18]): decreased mRNA and protein level of HCoV-229E N protein in Huh7 cells in a dose-dependent manner; N protein level of HCoV-229E (HCoV-229E [10]; MOI=1, different concentrations): decreased the HCoV-229E N protein level in Huh7 cells in a dose-dependent manner; protein level of HCoV-229E N protein (HCoV-229E [10]; [18]): decreased mRNA and protein level of HCoV-229E N protein in Huh7 cells in a dose-dependent manner
Cn1c(=O)c2c(nc(NCCO)n2Cc2cccc(OC(F)(F)F)c2)n(C)c1=O [IMB-92, 8-((2-hydroxyethyl)amino)-1,3-dimethyl-7-(3-(trifluoromethoxy)benzyl)-3,7-dihydro-1H-purine-2,6-dione] | – | 0.64 | – | – | – | inhibited HCoV-229E in Huh7 cells to different degrees | 144 | –
Cn1c(=O)c2c(nc(NCCO)n2Cc2c(F)cccc2F)n(C)c1=O [IMB-93, 7-(2,6-difluorobenzyl)-8-((2-hydroxyethyl)amino)-1,3-dimethyl-3,7-dihydro-1H-purine-2,6-dione] | – | 2.47 | – | – | – | inhibited HCoV-229E in Huh7 cells to different degrees | > 200 | –
COc1cccc(Cn2c(NCCO)nc3c2c(=O)n(C)c(=O)n3C)c1 [IMB-C5] | inhibited dsRNA production | 6.57 | > 200 | 26.8 | > 200 | – | > 139 | N protein level of HCoV-OC43 (HCoV-OC43 [1]; MOI=0.023, three concentrations): inhibited the expression of the viral N protein in a dose-dependent manner; mRNA level of HCoV-OC43 N protein (HCoV-OC43 [12]): decreased mRNA level of HCoV-OC43 N protein in C3A cells in a dose-dependent manner; dsRNA production during replication of HCoV-229E (HCoV-229E [2]; MOI=0.035, gradient concentrations, 24 h): had an inhibitory effect on dsRNA production; mRNA level of HCoV-229E N protein (HCoV-229E [13]): decreased mRNA level of HCoV-229E N protein in both Huh7 and Huh7.5 cells in a dose-dependent manner; CC50 (in vitro [14]): > 139 µM; antiviral effect, time of addition (HCoV-OC43 [15]; HCoV-OC43 MOI=0.28, administered 1 h to 4 h after infection): better antiviral effect; antiviral effect, time of addition (HCoV-OC43 [15]; HCoV-OC43 MOI=0.28, administered 6 h or more after infection): greatly diminished antiviral effect; antiviral effect, time of addition (HCoV-OC43 [15]; HCoV-OC43 MOI=0.28, administered at the time of virus infection): most significant inhibitory effect on virus; effect on blood lipids and atherosclerotic plaque formation [16]: good effect on lowering blood lipids and inhibiting atherosclerotic plaque formation; mRNA level of HCoV-229E N protein (HCoV-229E [8]; MOI=0.035, three concentrations): decreased mRNA level of HCoV-229E N protein in both Huh7 and Huh7.5 cells in a dose-dependent manner; CC50 (in vitro [17]): 493 µM
